Among the data in ChEMBL document CHEMBL3232931 (J Med Chem, 2014) are IC50, inhibition and t1/2 values, retold here.

Series [1] concerns the target T1, Ubiquitin carboxyl-terminal hydrolase 7 (Homo sapiens, UniProt Q93009). Briefly: Inhibition of human USP7 using Ub-rhodamine 110 as substrate.
Target sequence in this assay (Q93009 whole entry, the tested form may be a part): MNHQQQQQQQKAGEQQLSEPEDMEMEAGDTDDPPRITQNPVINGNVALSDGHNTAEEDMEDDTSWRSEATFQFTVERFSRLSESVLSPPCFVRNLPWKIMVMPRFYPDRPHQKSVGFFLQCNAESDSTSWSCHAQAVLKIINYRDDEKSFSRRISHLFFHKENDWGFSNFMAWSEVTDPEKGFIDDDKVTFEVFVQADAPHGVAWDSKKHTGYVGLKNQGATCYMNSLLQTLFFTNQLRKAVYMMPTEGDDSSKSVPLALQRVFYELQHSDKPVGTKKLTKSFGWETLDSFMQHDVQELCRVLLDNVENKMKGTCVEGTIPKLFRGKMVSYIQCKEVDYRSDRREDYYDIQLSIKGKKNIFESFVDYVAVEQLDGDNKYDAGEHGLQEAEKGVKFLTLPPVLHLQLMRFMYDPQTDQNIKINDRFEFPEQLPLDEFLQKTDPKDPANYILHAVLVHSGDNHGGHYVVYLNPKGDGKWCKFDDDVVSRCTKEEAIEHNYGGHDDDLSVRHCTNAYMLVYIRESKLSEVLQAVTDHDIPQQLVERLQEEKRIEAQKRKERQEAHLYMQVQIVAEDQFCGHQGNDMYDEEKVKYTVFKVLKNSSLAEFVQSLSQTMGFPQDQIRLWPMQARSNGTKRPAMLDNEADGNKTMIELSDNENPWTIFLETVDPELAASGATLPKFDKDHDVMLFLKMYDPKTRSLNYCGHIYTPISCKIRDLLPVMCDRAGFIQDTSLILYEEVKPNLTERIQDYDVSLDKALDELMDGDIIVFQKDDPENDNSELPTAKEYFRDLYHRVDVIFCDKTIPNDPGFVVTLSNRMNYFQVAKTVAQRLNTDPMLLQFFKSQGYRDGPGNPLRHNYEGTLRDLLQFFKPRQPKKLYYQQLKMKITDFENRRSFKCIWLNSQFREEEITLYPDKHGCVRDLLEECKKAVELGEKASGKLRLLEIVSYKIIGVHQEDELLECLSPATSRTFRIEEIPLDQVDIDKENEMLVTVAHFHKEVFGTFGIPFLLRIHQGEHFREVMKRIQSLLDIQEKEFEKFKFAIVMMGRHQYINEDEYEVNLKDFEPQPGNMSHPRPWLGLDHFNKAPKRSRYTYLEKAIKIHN
The test system of series [2] is BL21-DE3. Briefly: Inhibition of SARS coronavirus papain-like protease (amino acids 1541 to 1855) expressed in Escherichia coli BL21 (DE3) cells assessed as decrease in AMC release using Z-RLRGG-AMC as substrate by serum shift assay based multimode plate reader analysis in presence of 5 to 20% human serum albumin. As to conditions: Severe acute respiratory syndrome-related coronavirus.

The target in series [3] is T2, Ubiquitin carboxyl-terminal hydrolase 21 (Homo sapiens, UniProt Q9UK80).
T2 sequence (Q9UK80 whole entry): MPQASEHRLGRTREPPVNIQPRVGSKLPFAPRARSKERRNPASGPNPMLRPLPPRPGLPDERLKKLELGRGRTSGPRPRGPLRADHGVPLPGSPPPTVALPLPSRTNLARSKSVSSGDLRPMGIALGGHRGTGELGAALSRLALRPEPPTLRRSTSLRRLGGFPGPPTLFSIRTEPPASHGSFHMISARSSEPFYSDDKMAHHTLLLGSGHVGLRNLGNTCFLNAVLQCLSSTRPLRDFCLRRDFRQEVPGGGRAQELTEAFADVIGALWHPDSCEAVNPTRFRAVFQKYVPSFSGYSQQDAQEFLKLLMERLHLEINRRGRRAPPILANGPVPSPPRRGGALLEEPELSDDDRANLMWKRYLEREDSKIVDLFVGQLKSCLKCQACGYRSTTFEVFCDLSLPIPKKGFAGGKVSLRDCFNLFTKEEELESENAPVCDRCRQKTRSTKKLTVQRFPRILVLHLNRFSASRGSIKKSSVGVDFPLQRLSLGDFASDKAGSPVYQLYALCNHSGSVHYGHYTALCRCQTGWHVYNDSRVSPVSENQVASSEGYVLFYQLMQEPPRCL
In words: Inhibition of human USP21 using Ub-rhodamine 110 as substrate.

The target in series [4] is Ubiquitin carboxyl-terminal hydrolase isozyme L1 (Homo sapiens) (UniProt P09936). In words: Inhibition of human UCHL1 at 31 uM.
Series [5] concerns the target T3, Caspase-3 (Homo sapiens) (UniProt P42574).
T3 sequence (whole entry): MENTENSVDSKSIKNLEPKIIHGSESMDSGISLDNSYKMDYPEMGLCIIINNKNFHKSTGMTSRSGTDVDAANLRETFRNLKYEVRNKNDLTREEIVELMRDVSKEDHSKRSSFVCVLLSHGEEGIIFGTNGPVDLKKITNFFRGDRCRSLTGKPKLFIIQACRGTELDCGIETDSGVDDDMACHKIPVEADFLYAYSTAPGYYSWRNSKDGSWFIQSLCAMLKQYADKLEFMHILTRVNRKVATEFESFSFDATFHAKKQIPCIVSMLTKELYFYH
Briefly: Inhibition of human caspase-3 using fluorogenic peptide as substrate at 31 uM.

The target in series [6] is T4, Ubiquitin carboxyl-terminal hydrolase 8 (Homo sapiens, UniProt P40818).
T4 sequence (P40818 whole entry): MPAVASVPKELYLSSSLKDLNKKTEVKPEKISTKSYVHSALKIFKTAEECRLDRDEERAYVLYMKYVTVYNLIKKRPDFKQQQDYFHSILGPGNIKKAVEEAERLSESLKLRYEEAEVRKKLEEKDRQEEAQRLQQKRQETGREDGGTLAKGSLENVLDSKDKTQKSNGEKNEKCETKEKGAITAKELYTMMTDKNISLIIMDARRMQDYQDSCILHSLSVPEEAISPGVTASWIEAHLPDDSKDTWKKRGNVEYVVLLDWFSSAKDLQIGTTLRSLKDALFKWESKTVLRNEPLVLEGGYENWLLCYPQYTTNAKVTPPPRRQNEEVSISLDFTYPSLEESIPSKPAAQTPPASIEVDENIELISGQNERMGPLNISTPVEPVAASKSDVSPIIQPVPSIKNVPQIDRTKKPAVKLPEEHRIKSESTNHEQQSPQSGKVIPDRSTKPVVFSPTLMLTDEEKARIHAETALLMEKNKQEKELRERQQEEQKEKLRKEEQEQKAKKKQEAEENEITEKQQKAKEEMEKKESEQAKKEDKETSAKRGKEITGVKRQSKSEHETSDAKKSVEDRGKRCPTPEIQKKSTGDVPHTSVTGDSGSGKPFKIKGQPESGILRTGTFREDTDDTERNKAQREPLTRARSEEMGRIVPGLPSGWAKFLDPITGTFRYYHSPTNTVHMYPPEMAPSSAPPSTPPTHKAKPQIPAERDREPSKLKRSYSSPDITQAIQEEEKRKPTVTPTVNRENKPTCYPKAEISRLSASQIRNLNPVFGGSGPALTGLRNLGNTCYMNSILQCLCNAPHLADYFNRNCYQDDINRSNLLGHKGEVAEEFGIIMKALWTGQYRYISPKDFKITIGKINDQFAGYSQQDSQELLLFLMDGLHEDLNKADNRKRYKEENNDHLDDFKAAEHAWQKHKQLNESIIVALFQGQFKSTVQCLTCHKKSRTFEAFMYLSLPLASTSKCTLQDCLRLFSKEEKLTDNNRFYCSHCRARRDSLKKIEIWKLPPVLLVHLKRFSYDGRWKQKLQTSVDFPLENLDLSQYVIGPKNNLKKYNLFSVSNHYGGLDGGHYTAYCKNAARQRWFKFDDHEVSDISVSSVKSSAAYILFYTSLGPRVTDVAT
In words: Inhibition of human USP8 using Ub-rhodamine 110 as substrate.

The target in series [7] is T5, Ubiquitin carboxyl-terminal hydrolase 8 (Homo sapiens) (UniProt P40818).
T5 sequence (whole entry): T4 sequence (P40818 whole entry)
In words: Inhibition of human USP8 using Ub-rhodamine 110 as substrate at 31 uM.

Series [8] has as its system Liver. Briefly: Half life in mouse liver microsomes at 1 uM. The format is ADME. For orientation: Liver microsomes are a subcellular fraction often used to study metabolism.
The target of series [9] is T1, Ubiquitin carboxyl-terminal hydrolase 7. In words: Inhibition of human USP7 using Ub-rhodamine 110 as substrate at 31 uM.
Target sequence in this assay (Q93009 whole entry, looked up, the tested form may be a part): as the sequence (Q93009 whole entry, the tested form may be a part) above
The target in series [10] is T6, Ubiquitin carboxyl-terminal hydrolase 2 (Homo sapiens, UniProt O75604).
T6 sequence (O75604 whole entry): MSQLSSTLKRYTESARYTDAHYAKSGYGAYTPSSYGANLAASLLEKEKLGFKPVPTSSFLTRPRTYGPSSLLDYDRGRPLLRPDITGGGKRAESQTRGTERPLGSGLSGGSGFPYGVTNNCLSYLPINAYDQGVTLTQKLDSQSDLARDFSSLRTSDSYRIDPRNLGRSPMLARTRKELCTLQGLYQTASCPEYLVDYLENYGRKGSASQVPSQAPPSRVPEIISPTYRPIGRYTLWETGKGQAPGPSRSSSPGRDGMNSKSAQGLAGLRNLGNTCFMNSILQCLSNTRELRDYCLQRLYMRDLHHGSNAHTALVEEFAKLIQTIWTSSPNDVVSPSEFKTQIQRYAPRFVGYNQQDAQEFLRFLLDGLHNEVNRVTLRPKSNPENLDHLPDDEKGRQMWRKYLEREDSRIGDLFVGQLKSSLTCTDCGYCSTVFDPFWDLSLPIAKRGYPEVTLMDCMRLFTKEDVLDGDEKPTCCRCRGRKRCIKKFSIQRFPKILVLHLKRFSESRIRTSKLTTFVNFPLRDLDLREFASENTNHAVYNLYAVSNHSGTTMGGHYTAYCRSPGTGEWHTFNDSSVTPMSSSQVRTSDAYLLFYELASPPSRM
In words: Inhibition of human USP2 using Ub-rhodamine 110 as substrate.

Activity calls are given as the source filed them. The rule behind the calls is not given here. Some results are limits rather than exact numbers.

Ubiquitin carboxyl-terminal hydrolase isozyme L1 (Homo sapiens), sequence (P09936 whole entry, looked up): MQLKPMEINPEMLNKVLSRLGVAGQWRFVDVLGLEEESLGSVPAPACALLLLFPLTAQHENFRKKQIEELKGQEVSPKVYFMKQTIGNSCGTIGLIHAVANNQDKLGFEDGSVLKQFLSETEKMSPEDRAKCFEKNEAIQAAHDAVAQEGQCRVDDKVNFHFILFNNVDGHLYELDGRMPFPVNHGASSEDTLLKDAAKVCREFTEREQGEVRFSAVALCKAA

For the molecule `CC(=O)Nc1cccc(CNC(=O)C2CCN([C@H](C)c3cccc4ccccc34)CC2)c1`, the IC50 (in general, the concentration that inhibits the measured activity by half) in series [1] (read-out: IC50) was > 100 µM; in series [3], > 31 µM; in [6], > 100 µM; in series [10] (read-out: IC50) it was > 100 µM. In addition, in series [2], the inhibition – broadly, the change of the read-out against control, counted positive when it falls – was “Active”. Further, the inhibition in series [4] is < 10%; in series [5], < 10%; in series [7] it was 10%; in series [9], 10%. Besides, in series [8], the t1/2 was found to be 7 min.

As to `C[C@H](c1cccc2ccccc12)N1CCC(C(=O)NCc2ccc(F)cc2)CC1`, the IC50 result in [1] was “Not Active”; in series [3], > 31 µM; in series [6] it was > 100 µM; in series [10] it was “Not Active”. Also, the inhibition result in [2] was “Active”. Also, the inhibition in series [4] was < 10%; in [5], < 10%; in series [7] it was 10%; in series [9], < 10%.

`C[C@H](c1cccc2ccccc12)N1CCC(C(=O)NCc2cccc(F)c2)CC1`: the IC50 result in [1] was “Not Active”; in [3], > 31 µM; in [6], > 100 µM; in [10], “Not Active”. Moreover, the inhibition entry in [2] was “Active”. The inhibition was < 10% in series [4], < 10% in series [5], 10% in series [7] and < 10% in series [9]. In addition, in series [8], the t1/2 worked out at 2.8 min.

On to `C[C@H](c1cccc2ccccc12)N1CCC(C(=O)NCc2ccc3c(c2)OCO3)CC1`, for which the IC50 result in series [1] was “Not Active”; in series [3] it was > 31 µM; in [6], > 100 µM; in series [10], “Not Active”. Moreover, the inhibition entry in [2] was “Active”. In addition, the inhibition in series [4] was < 10%; in series [5] it was < 10%; in series [7] it was 10%; in series [9], < 10%. The t1/2 in series [8] is 1.6 min.
